Assay results published in PMC8896928, “Preparation, Characterization, and Preliminary Imaging Study of [^188Re]Re-Ibandronate as a Novel Theranostic Radiopharmaceutical for Bone Metastasis” (Contrast Media & Molecular Imaging, 2022).
Like-named read-outs stand apart in the source and are kept apart here.

Key:
[1] = Biodistribution in normal mice; format: in vivo, Kunming mice
Experimental: Twenty Kunming mice (originated from Swiss albino mice and introduced into Kunming, China.) were randomly divided into five groups (equal number of males and females). Each group was injected with 3.7 MBq [^188Re]Re-IBA. […] The blood and important tissue and organ samples were collected to measure the radioactivity count by γ counter. Following the time attenuation correction, the percentage injection dose rate per gram of tissue (%ID/g) was calculated at each time point. The result is expressed as mean ± standard deviation ( χ¯ ± s). The in vivo distribution of [^188Re]ReO4^− was studied using the aforementioned method.

patients = conditions: cited from earlier work; for Nephrotoxicity: patients, renal safety
[2] = Swiss mice, cited from earlier work
[3] = 0.9% NaCl, 24 h; cited from earlier work
[4] = Kunming mice, 24 h, cited from earlier work
[5] = patients with bone tumors, P < 0.05

**Q.** What does the source list for `[O]=[188Re](=[O])(=[O])[O-]` [[^188Re]ReO4^−, reference compound]?
**A.** %ID/g Blood ([1]; 1 h): 4.648 ± 1.631 %ID/g; %ID/g Brain ([1]; 1 h): 0.207 ± 0.044 %ID/g; %ID/g Femur ([1]; 1 h): 1.670 ± 0.345 %ID/g; %ID/g Gonad ([1]; 1 h): 1.096 ± 0.007 %ID/g; %ID/g Heart ([1]; 1 h): 1.422 ± 0.339 %ID/g; %ID/g Kidney ([1]; 1 h): 2.923 ± 0.658 %ID/g; %ID/g Liver ([1]; 1 h): 2.480 ± 0.556 %ID/g; %ID/g Lung ([1]; 1 h): 4.458 ± 1.379 %ID/g; %ID/g Muscle ([1]; 1 h): 0.775 ± 0.074 %ID/g; %ID/g Small intestine ([1]; 1 h): 1.671 ± 0.448 %ID/g; %ID/g Spleen ([1]; 1 h): 2.341 ± 0.973 %ID/g; %ID/g Stomach ([1]; 1 h): 22.747 ± 5.67 %ID/g; %ID/g Thyroid gland ([1]; 1 h): 20.247 ± 2.489 %ID/g; Femur/heart radioactivity ratio ([1]; 1 h): 1.195; Femur/liver radioactivity ratio ([1]; 1 h): 0.685; Femur/muscle radioactivity ratio ([1]; 1 h): 2.193; %ID/g Blood ([1]; 3 h): 1.578 ± 0.419 %ID/g; %ID/g Brain ([1]; 3 h): 0.070 ± 0.024 %ID/g; %ID/g Femur ([1]; 3 h): 0.431 ± 0.038 %ID/g; %ID/g Gonad ([1]; 3 h): 0.404 ± 0.130 %ID/g; %ID/g Heart ([1]; 3 h): 0.401 ± 0.050 %ID/g; %ID/g Kidney ([1]; 3 h): 0.683 ± 0.118 %ID/g; %ID/g Liver ([1]; 3 h): 0.530 ± 0.038 %ID/g; %ID/g Lung ([1]; 3 h): 1.026 ± 0.312 %ID/g; %ID/g Muscle ([1]; 3 h): 0.182 ± 0.023 %ID/g; %ID/g Small intestine ([1]; 3 h): 0.558 ± 0.207 %ID/g; %ID/g Spleen ([1]; 3 h): 0.490 ± 0.090 %ID/g; %ID/g Stomach ([1]; 3 h): 8.578 ± 3.928 %ID/g; %ID/g Thyroid gland ([1]; 3 h): 10.167 ± 1.618 %ID/g; Femur/heart radioactivity ratio ([1]; 3 h): 1.075; Femur/liver radioactivity ratio ([1]; 3 h): 0.813; Femur/muscle radioactivity ratio ([1]; 3 h): 2.372; %ID/g Blood ([1]; 6 h): 0.533 ± 0.254 %ID/g; %ID/g Brain ([1]; 6 h): 0.044 ± 0.019 %ID/g; %ID/g Femur ([1]; 6 h): 0.213 ± 0.102 %ID/g; %ID/g Gonad ([1]; 6 h): 0.207 ± 0.065 %ID/g; %ID/g Heart ([1]; 6 h): 0.176 ± 0.074 %ID/g; %ID/g Kidney ([1]; 6 h): 0.338 ± 0.191 %ID/g; %ID/g Liver ([1]; 6 h): 0.258 ± 0.086 %ID/g; %ID/g Lung ([1]; 6 h): 0.487 ± 0.132 %ID/g; %ID/g Muscle ([1]; 6 h): 0.109 ± 0.065 %ID/g; %ID/g Small intestine ([1]; 6 h): 0.263 ± 0.050 %ID/g; %ID/g Spleen ([1]; 6 h): 0.270 ± 0.098 %ID/g; %ID/g Stomach ([1]; 6 h): 2.828 ± 1.287 %ID/g; %ID/g Thyroid gland ([1]; 6 h): 4.299 ± 1.015 %ID/g; Femur/heart radioactivity ratio ([1]; 6 h): 1.205; Femur/liver radioactivity ratio ([1]; 6 h): 0.823; Femur/muscle radioactivity ratio ([1]; 6 h): 1.950; %ID/g Blood ([1]; 24 h): 0.023 ± 0.009 %ID/g; %ID/g Brain ([1]; 24 h): 0.017 ± 0.004 %ID/g; %ID/g Femur ([1]; 24 h): 0.031 ± 0.003 %ID/g; %ID/g Gonad ([1]; 24 h): 0.021 ± 0.009 %ID/g; %ID/g Heart ([1]; 24 h): 0.017 ± 0.005 %ID/g; %ID/g Kidney ([1]; 24 h): 0.017 ± 0.003 %ID/g; %ID/g Liver ([1]; 24 h): 0.023 ± 0.010 %ID/g; %ID/g Lung ([1]; 24 h): 0.054 ± 0.017 %ID/g; %ID/g Muscle ([1]; 24 h): 0.021 ± 0.008 %ID/g; %ID/g Small intestine ([1]; 24 h): 0.023 ± 0.004 %ID/g; %ID/g Spleen ([1]; 24 h): 0.028 ± 0.007 %ID/g; %ID/g Stomach ([1]; 24 h): 0.053 ± 0.032 %ID/g; %ID/g Thyroid gland ([1]; 24 h): 0.051 ± 0.026 %ID/g; Femur/heart radioactivity ratio ([1]; 24 h): 1.853; Femur/liver radioactivity ratio ([1]; 24 h): 1.325; Femur/muscle radioactivity ratio ([1]; 24 h): 1.498; %ID/g Blood ([1]; 48 h): 0.007 ± 0.002 %ID/g; %ID/g Brain ([1]; 48 h): 0.013 ± 0.006 %ID/g; %ID/g Femur ([1]; 48 h): 0.011 ± 0.005 %ID/g; %ID/g Gonad ([1]; 48 h): 0.007 ± 0.001 %ID/g; %ID/g Heart ([1]; 48 h): 0.011 ± 0.004 %ID/g; %ID/g Kidney ([1]; 48 h): 0.017 ± 0.007 %ID/g; %ID/g Liver ([1]; 48 h): 0.018 ± 0.010 %ID/g; %ID/g Lung ([1]; 48 h): 0.036 ± 0.008 %ID/g; %ID/g Muscle ([1]; 48 h): 0.020 ± 0.005 %ID/g; %ID/g Small intestine ([1]; 48 h): 0.014 ± 0.005 %ID/g; %ID/g Spleen ([1]; 48 h): 0.022 ± 0.006 %ID/g; %ID/g Stomach ([1]; 48 h): 0.029 ± 0.012 %ID/g; %ID/g Thyroid gland ([1]; 48 h): 0.025 ± 0.009 %ID/g; Femur/heart radioactivity ratio ([1]; 48 h): 1.060; Femur/liver radioactivity ratio ([1]; 48 h): 0.638; Femur/muscle radioactivity ratio ([1]; 48 h): 0.585

**Q.** Which “Renal function during follow-up” value (patients; 44 patients, average follow-up of 18.5 months) does the source give for `CCCCCN(C)CCC(O)(P(=O)(O)O)P(=O)(O)O` [ibandronic acid, Ibandronic acid] here?
**A.** no impairment of renal function

**Q.** And the “Pain relief rate and improvement in the quality of life vs zoledronic acid group” value (patients; [5])?
**A.** higher

**Q.** What about the “Rate of adverse reactions vs zoledronic acid group” value (patients; [5]) of the same molecule?
**A.** lower

**Q.** And the Nephrotoxicity (patients)?
**A.** extremely low and equivalent to that of the placebo

**Q.** Which “Bone uptake (lowest)” value ([2]; 1 h) does the source give for [^188Re]Re-pamidronate [[^188Re]Re-PMA] here?
**A.** 0.40 ± 0.05 %ID/g

**Q.** And the “Bone uptake (highest)” value ([2]; 4 h)?
**A.** 0.81 ± 0.25 %ID/g

**Q.** Which “Stability (RCP)” value [3] does the source give for “[^188Re]Re-bisphosphonate hydroxyethylidene diphosphonate [[^188Re]Re-HEDP]” here?
**A.** 91.2%

**Q.** What about the “Bone uptake (maximum)” value ([2]; 4 h) of the same molecule?
**A.** 1.0 ± 0.1 %ID/g

**Q.** What about the Bone uptake ([4]; ref 37) of the same molecule?
**A.** 22.36 ± 4.11 %ID/g

**Q.** What about the Bone uptake ([4]; ref 38) of the same molecule?
**A.** 11.08 ± 4.25 %ID/g

**Q.** For `O=P(O)(O)C(O)(Cn1ccnc1)P(=O)(O)O` [zoledronic acid], which Nephrotoxicity (patients) is on record?
**A.** possible occurrence of nephrotoxicity
